The source of these data is US8974807B2, “Active agent combinations” (Bayer Cropscience AG, priority 2000, dated 2015).

Test [1] relates to whitefly (Trialeurodes vaporariorum). The test can be described thus: Trialeurodes test (Example 1), sprayed red sage infested by all stages of whitefly. Type of test: in vivo. To be noted: 100 g/ha, sprayed on Lantana camara at 7-day intervals; evaluation 15 days after the second treatment. How it is done:
(§1) To produce a suitable preparation of active compound, a commercial formulation of active compound or active compound combination is mixed with water until the desired concentration is reached.
Red sage (Lantana camara) which is heavily infested by all stages of the whitefly (Trialeurodes vaporariorum) is sprayed in intervals of 7 days in each case with a preparation of active compound at the desired application rate.
Evaluation is carried out 15 days after the second treatment. 100% means that all flies have been killed, whilst 0% means that none of the flies have been killed.

The test system is the same in test [2]. The test can be described thus: Trialeurodes test (Example 2), sprayed red sage infested by whitefly, evaluated at 15, 19 and 25 days. Type of test: in vivo. To be noted: 100 g/ha. How it is done: as §1
Red sage (Lantana camara) which is heavily infested by the whitefly (Trialeurodes vaporariorum) is sprayed in intervals of 7 days in each case with a preparation of active compound at the desired application rate.
Evaluation is carried out 15, 19 and 25 days after the second treatment. 100% means that all flies have been […], whilst 0% means that none of the flies have been killed.

As for `N#C/N=C1\SCCN1Cc1ccc(Cl)nc1` [(16) thiacloprid, thiacloprid], the “Kill rate in %” value in test [1] was determined as 72.8%. Also, the “Kill rate in % 15 days after the second treatment” value in test [2] (15 days after the second treatment) stood at 72.8%. Also, the “Kill rate in % 19 days after the second treatment” value in test [2] (19 days after the second treatment) was 39.5%. Besides, the “Kill rate in % 25 days after the second treatment” value in test [2] (25 days after the second treatment) is 0%.
